Key:
Assay type in all cases: cell-based
CK1α = target: T1, CK1α (Homo sapiens, UniProt P48729+Q96SW2); experiment: HiBiT degradation assay, CK1α, Procedure A
T1 construct: CSNK1A1-HiBit KI HEK293(LgBit) Cells; host or cells: HEK293(LgBit) knock-in cells
Outline: (§1)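 Cells in DMEM + 10% FBS were treated with compound in a ten-point dose response from 10 μM to 0.005 μM (0.1% DMSO) for six hours at 37° C. Lysis with Nano-Glo HiBiT detection reagent followed, with luminescence read. DC50 and Ymin came from a 4-parameter fit.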

GSPT1 = GSPT1 (Homo sapiens, UniProt P15170+Q96SW2); experiment: HiBiT degradation assay, GSPT1, Procedure A; set-up: HiBit-GSPT1 KI HEK293(LgBit) Cells; host or cells: HEK293(LgBit) knock-in cells
Outline: as §1

Z-138 cells = experiment: Z-138 Proliferation Assay (Cell Titer-Glo); details: 72 hours; for Ymin (%): % remaining (percent of DMSO control); for EC50: Homo sapiens, Cell Titer-Glo, 4-parameter curve fit
Description: Z-138 Proliferation Assay
Z-138 cells were cultured in IMDM Medium supplemented with 10% heat in-activated fetal bovine serum and 1% Penicillin-Streptomycin.
10 mM stocks of compound were made from fresh powder. DMSO was added to solid compound so that the final concentration was 10 mM. Compounds were vortexed and allowed to sit for 5 minutes to ensure complete solubility. Solvated compound was aliquoted into 1 ml Eppendorf tubes and stored in a −20° C. freezer.
Z-138 cells were maintained in culture using standard cell culturing techniques.
Cells were maintained at a density of 0.8×10^6 cells/ml.
Re-constitute cell titer-glo reagent according to manufacturer's protocol.
Z-138 cells were removed from culture and cell viability and density were determined using a CellDrop™ Automated Cell Counter with Tryphan blue stain according to manufacturer's protocols. Cells were centrifuged and resuspended using fresh media to a cell density of 0.1×10^6 cells/ml. […] 40 μl of cell suspension was added to the wells of a 384 well tissue culture plate (4,000 cells/well final). Upon completing the addition of the cells to the plate, the plates were centrifuged for 30 seconds at 300 rpms to help the cells settle and to bring air bubbles to the top of the wells. Air bubbles were popped using a pipette tip.
10-point dose response curves were performed using a D300e Digital Dispenser. The highest concentration of compound used in the assay was 10,000 nM. 1:2 dilutions were performed over a 10-point range with the final DMSO concentration being 0.1%. The cells were cultured for 72 hours in the presence of compound.
After 72 hours, the cell plates were removed from the incubator and allowed to equilibrate to room temperature (about 15 minutes). 20 μl of cell titer-glo reagent was added to each well of the 384 well plate. Incubated the plate for 30 minutes in the dark. After 30 minutes, ensured that there were no air bubbles in the plate (popped bubbles with pipette tip if necessary) and analyzed plate using a luminometer.
EC50 curves were generated using Prism Graph Pad. In brief, POCs (percent of control, compound/DMSO control×100) were plotted against the compound concentrations (log scale). EC50 curves were generated using a 4-parameter curve fit.

T1 sequence (P48729 whole entry): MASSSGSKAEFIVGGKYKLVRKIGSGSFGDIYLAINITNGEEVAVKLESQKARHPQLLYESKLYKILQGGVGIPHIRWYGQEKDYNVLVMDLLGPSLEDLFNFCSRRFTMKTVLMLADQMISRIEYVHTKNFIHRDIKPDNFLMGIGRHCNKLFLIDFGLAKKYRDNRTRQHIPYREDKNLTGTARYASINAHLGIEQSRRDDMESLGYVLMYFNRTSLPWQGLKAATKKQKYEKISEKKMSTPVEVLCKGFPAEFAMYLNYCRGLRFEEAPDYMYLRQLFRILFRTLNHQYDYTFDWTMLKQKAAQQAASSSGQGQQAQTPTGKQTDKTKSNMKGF
T1 sequence (Q96SW2 whole entry): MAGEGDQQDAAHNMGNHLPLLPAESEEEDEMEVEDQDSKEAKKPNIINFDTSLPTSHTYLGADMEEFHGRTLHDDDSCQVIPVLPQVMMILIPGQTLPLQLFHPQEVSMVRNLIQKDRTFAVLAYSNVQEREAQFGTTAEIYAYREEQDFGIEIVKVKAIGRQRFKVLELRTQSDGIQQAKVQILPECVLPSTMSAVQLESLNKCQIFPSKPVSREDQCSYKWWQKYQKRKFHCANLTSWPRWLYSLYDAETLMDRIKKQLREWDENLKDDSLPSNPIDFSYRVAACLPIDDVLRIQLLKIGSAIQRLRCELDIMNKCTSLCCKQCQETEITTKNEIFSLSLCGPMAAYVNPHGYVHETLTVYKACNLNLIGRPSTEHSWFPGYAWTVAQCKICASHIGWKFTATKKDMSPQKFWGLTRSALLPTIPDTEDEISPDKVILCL
T1 sequence (Q16531 whole entry partner): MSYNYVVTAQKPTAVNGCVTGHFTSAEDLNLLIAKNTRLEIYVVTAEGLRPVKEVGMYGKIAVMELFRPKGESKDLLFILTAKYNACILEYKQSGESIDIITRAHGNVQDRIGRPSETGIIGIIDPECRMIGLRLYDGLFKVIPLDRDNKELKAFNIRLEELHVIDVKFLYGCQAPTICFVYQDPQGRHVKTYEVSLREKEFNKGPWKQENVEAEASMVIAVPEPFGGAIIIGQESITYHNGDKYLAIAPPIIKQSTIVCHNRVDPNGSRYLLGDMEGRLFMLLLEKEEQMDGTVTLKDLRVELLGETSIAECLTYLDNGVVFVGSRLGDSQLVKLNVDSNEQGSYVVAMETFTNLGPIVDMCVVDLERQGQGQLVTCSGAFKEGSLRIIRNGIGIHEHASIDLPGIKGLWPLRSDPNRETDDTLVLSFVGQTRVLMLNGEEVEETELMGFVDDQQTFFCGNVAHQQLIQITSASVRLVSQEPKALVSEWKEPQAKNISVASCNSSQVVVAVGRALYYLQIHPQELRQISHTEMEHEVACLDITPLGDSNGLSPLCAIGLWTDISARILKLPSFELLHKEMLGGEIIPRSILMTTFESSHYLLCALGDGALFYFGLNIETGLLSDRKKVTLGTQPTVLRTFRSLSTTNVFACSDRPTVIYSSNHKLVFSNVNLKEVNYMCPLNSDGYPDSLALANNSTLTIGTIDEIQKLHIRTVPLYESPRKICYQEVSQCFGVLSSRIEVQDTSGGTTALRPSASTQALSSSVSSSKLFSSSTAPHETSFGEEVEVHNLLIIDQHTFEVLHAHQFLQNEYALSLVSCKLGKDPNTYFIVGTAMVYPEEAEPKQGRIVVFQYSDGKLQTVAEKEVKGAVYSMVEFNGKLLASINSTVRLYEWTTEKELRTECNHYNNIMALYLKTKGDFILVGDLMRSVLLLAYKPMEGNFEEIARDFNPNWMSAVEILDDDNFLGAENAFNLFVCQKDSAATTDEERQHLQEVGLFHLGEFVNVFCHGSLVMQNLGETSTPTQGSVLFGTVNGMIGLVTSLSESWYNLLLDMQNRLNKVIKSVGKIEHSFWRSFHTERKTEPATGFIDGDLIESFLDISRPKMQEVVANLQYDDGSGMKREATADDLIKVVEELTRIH
GSPT1, sequence (P15170 whole entry): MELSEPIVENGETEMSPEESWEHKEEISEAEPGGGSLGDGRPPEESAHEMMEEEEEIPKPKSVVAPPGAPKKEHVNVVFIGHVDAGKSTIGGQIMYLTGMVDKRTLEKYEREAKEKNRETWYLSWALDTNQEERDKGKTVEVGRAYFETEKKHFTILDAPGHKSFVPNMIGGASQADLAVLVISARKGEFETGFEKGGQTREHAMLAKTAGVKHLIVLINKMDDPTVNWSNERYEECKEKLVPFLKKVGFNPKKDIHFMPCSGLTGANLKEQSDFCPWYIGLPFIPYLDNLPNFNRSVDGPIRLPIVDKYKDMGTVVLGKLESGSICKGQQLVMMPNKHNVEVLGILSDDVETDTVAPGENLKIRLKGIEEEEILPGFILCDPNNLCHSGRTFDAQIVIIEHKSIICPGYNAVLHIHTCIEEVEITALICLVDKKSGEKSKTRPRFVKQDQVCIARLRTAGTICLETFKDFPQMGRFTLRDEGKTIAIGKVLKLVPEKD
GSPT1, sequence (Q96SW2 whole entry): as the sequence (Q96SW2 whole entry) above
GSPT1, sequence (Q16531 whole entry partner): as the sequence (Q16531 whole entry partner) above

Compound	CK1α Ymin (CK1α; six hours incubation)	DC50 (CK1α; six hours incubation) [nM]	DC50 (GSPT1; six hours incubation) [nM]	GSPT1 Ymin (GSPT1; six hours incubation)	Ymin (%) (Z-138 cells)	EC50 (Z-138 cells) [nM]	CK1α Ymin (CK1α; six hours)	DC50 (CK1α; six hours) [nM]	DC50 (GSPT1; six hours) [nM]	GSPT1 Ymin (GSPT1; six hours)
O=C1CCC(N2Cc3cc(-c4cnn5c4-c4ccccc4C5)ccc3C2=O)C(=O)N1 (stereo not drawn) [Example 212, 3-(1-Oxo-5-(8H-pyrazolo[5,1-a]isoindol-3-yl)isoindolin-2-yl)piperidine-2,6-dione]	D (D = >10- 25% remaining)	< 25	≥ 25	F (F = >75-100% remaining)	D (0-10% remaining)	100 to 500				
Cn1nc(-c2ccc3c(c2)CN(C2CCC(=O)NC2=O)C3=O)nc1-c1ccc(C(F)(F)F)cc1 (stereo not drawn) [Example 619, 3-(5-(1-methyl-5-(4-(trifluoromethyl)phenyl)-1H-1,2,4-triazol-3-yl)-1-oxoisoindolin-2-yl)piperidine-2,6-dione]					F (>25-50% remaining)	10 to 100	E (E = >25-75% remaining)	< 25	≥ 25	F (F = >75-100% remaining)
O=C1CCC(N2Cc3cc(-c4nc(-c5ccccc5)n(C(F)F)n4)ccc3C2=O)C(=O)N1 (stereo not drawn) [Example 703, 3-(5-(1-(difluoromethyl)-5-phenyl-1H-1,2,4-triazol-3-yl)-1-oxoisoindolin-2-yl) piperidine-2,6-dione]					E (>10-25% remaining)	10 to 100	D (D = >10- 25% remaining)	< 25	≥ 25	F (F = >75-100% remaining)
Cn1nc(-c2ccc3c(c2)CN(C2CCC(=O)NC2=O)C3=O)cc1C1CCC(F)(F)CC1 (stereo not drawn) [Example 546, 3-(5-(5-(4,4-difluorocyclohexyl)-1-methyl-1H-pyrazol-3-yl)-1-oxoisoindolin-2-yl)piperidine-2,6-dione]					F (>25-50% remaining)	10 to 100	D (D = >10- 25% remaining)	< 25	≥ 25	F (F = >75-100% remaining)
O=C1CCC(N2Cc3cc(-c4nccn4C4CCCCC4)ccc3C2=O)C(=O)N1 (stereo not drawn) [Example 48, 3-(5-(1-Cyclohexyl-1H-imidazol-2-yl)-1-oxoisoindolin-2-yl)piperidine-2,6-dione]	C (C = 0-10% remaining)	< 25	< 25	D (D = >10- 25% remaining)	D (0-10% remaining)	< 10				
Cn1cc(-c2c(-c3ccc4c(c3)CN(C3CCC(=O)NC3=O)C4=O)ncn2C)cn1 (stereo not drawn) [Example 319]	C (C = 0-10% remaining)	< 25	≥ 25	E (E = >25-75% remaining)	D (0-10% remaining)	10 to 100				
O=C1CCC(N2Cc3cc(-c4nc(-c5ccccc5)n(C5CC5)n4)ccc3C2=O)C(=O)N1 (stereo not drawn) [Example 705, 3-(5-(1-cyclopropyl-5-phenyl-1H-1,2,4-triazol-3-yl)-1-oxoisoindolin-2-yl)piperidine-2,6-dione]					E (>10-25% remaining)	10 to 100	C (C = 0-10% remaining)	< 25	< 25	F (F = >75-100% remaining)
Cn1c(C(F)(F)F)nc(-c2ccc3c(c2)CN(C2CCC(=O)NC2=O)C3=O)c1-c1ccccc1 (stereo not drawn) [Example 52, 3-(5-(1-Methyl-5-phenyl-2-(trifluoromethyl)-1H-imidazol-4-yl)-1-oxoisoindolin-2-yl)piperidine-2,6-dione]	C (C = 0-10% remaining)	< 25	< 25	F (F = >75-100% remaining)	D (0-10% remaining)	< 10				
CC(C)n1nc(-c2ccc3c(c2)CN(C2CCC(=O)NC2=O)C3=O)cc1-c1ccccc1 (stereo not drawn) [Example 550, 3-(5-(1-isopropyl-5-phenyl-1H-pyrazol-3-yl)-1-oxoisoindolin-2-yl)piperidine-2,6-dione]					D (0-10% remaining)	10 to 100	C (C = 0-10% remaining)	< 25	≥ 25	F (F = >75-100% remaining)
Cn1ncc(-c2ccc3c(c2)CN(C2CCC(=O)NC2=O)C3=O)c1-c1ccc2cc[nH]c2c1 (stereo not drawn) [Example 379]					D (0-10% remaining)	< 10	C (C = 0-10% remaining)	< 25	≥ 25	F (F = >75-100% remaining)
Cn1cnc(-c2ccc3c(c2)CN(C2CCC(=O)NC2=O)C3=O)c1C1CCCCC1 (stereo not drawn) [Example 594]					D (0-10% remaining)	< 10	C (C = 0-10% remaining)	< 25	< 25	E (E = >25-75% remaining)
CCn1nc(-c2ccccc2)c(-c2ccc3c(c2)CN(C2CCC(=O)NC2=O)C3=O)n1 (stereo not drawn) [Example 51, 3-(5-(2-Ethyl-5-phenyl-2H-1,2,3-triazol-4-yl)-1-oxoisoindolin-2-yl)piperidine-2,6-dione]	C (C = 0-10% remaining)	< 25	≥ 25	F (F = >75-100% remaining)	D (0-10% remaining)	10 to 100				
Cn1nc(-c2ccc3c(c2)CN(C2CCC(=O)NC2=O)C3=O)cc1-c1ccccc1 (stereo not drawn) [Example 36, 3-(5-(1-Methyl-5-phenyl-1H-pyrazol-3-yl)-1-oxoisoindolin-2-yl) piperidine-2,6-dione]	D (D = >10- 25% remaining)	< 25	≥ 25	F (F = >75-100% remaining)	E (>10-25% remaining)	10 to 100				
Cn1c(C2CC2)nc(-c2ccc3c(c2)CN(C2CCC(=O)NC2=O)C3=O)c1-c1ccccc1 (stereo not drawn) [Example 12, 3-(5-(2-cyclopropyl-1-methyl-5-phenyl-1H-imidazol-4-yl)-1-oxoisoindolin-2-yl)piperidine-2,6-dione]	C (C = 0-10% remaining)	< 25	≥ 25	E (E = >25-75% remaining)	D (0-10% remaining)	< 10				
Cn1cnc(-c2ccc3c(c2)CN(C2CCC(=O)NC2=O)C3=O)c1-c1cccc(N2CCCC2)c1 (stereo not drawn) [Example 287]	D (D = >10- 25% remaining)	< 25	< 25	F (F = >75-100% remaining)	D (0-10% remaining)	< 10				
Cn1cc(-c2ccc3c(c2)CN(C2CCC(=O)NC2=O)C3=O)nc1C1CCCCC1 (stereo not drawn) [Example 335, 3-(5-(2-cyclohexyl-1-methyl-1H-imidazol-4-yl)-1-oxoisoindolin-2-yl)piperidine-2,6-dione]	C (C = 0-10% remaining)	< 25	< 25	F (F = >75-100% remaining)	D (0-10% remaining)	10 to 100				
